This note sets out measurements from paper PMC6620010, “Purification and characterization of Terfezia claveryi TcCAT-1, a desert truffle catalase upregulated in mycorrhizal symbiosis” (PLoS ONE, 2019).

The test relates to T1, TcCAT-1.
T1 construct: native, purified from wild ascocarps (Zarzadilla de Totana, Lorca, Murcia, Spain); large-subunit monofunctional heme catalase, Clade 2, L2 group
Briefly: H2O2 decomposition at […] nm. The class given is biochemical, Terfezia claveryi. The conditions noted are these: 10 mM H2O2, 0.1 M sodium phosphate pH 7.0, room temperature.

As a reminder, the IC50 is the concentration that gives 50% inhibition. The compound `OCCS` [2-mercaptoethanol] displayed an IC50 (text b58 prints 0.125 mM) of 130 ± 20 µM. Turning to `NO` [hydroxylamine], inhibition was half-maximal at 0.1 ± 0.01 µM (IC50).
